Patent publication US20250332112A1, “IONIZABLE CATIONIC LIPIDS FOR LIPID NANOPARTICLES” (GENEVANT SCIENCES GMBH, priority 2022, published 2025)

Experiments:
[1] = Particle characteristics of LNPs containing EGFP mRNA and novel ionizable lipids; assay type: physicochemical; conditions: EGFP mRNA LNP 1.6:54.6:32.8:10.9
Description: The lipid solution contains 4 components: a PEG-conjugated lipid, an ionizable lipid, cholesterol, and a phospholipid (e.g., DSPC). Lipid stocks were prepared using the lipid identities and molar ratios as described, to achieve a total concentration of ˜7 mg/mL in 100% ethanol. […] Equal volumes of the lipid and nucleic acid solutions were blended at a flow rate of 400 mL/min through a T-connector, and diluted with ˜4 volumes of PBS, pH 7.4. Formulations were placed in Slide-A-Lyzer dialysis units (MWCO 10,000) and dialyzed overnight against 10 mM Tris, 500 mM NaCl, pH 8 buffer. Following dialysis, the formulations were concentrated to ˜0.6 mg/mL using VivaSpin concentrator units (MWCO 100,000) and dialyzed overnight against 5 mM Tris, 10% sucrose, pH 8 buffer. Formulations were filtered through a 0.2 μm syringe filter (PES membrane). Nucleic acid concentration was determined by the RiboGreen assay. Particle size and polydispersity were determined using a Malvern Nano Series Zetasizer.
LNP formulations containing novel ionizable lipids all produced stable particles with high encapsulation efficiency (Tables 20-23).

[2] = Parent ionizable lipid remaining in liver at 24 h after EGFP mRNA LNP (LC-MS); assay type: in vivo; conditions: 24 h after IV 0.5 mg/kg EGFP mRNA LNP, female BALB/c mice (n = 4)
Description: Liver tissues were treated with PBS and homogenized with a FastPrep machine, 3 cycles of 5 m/s×15 s. Homogenates from the PBS-treated control animals was pooled and used for standard curve preparation. Samples were extracted into a deep well plate with 250 μL of an internal suitability standard. Plates were centrifuged for 15 min at 4° C. and 2000 rpm. Analysis was performed using an Agilent 6520 QTOF coupled to an Agilent 1290 UHPLC, using reverse-phase LC separation. Quantitation of the ionizable lipid was by MS/MS against a calibration curve spiked into appropriately matched blank matrix. Calibration used a similar class of synthetic lipid as internal standard.
At 24 h post-dose, some treatment groups reported lower levels of novel ionizable lipid in mouse liver compared to the benchmark (Tables 28-31).

[3] = tested on: EGFP expression in the liver; assay: EGFP expression in liver after intravenous EGFP mRNA LNP (ELISA); conditions: 0.5 mg/kg IV, 24 h post-IV administration, BALB/c mice (n = 4)
[4] = Particle characteristics of LNPs containing luciferase mRNA and novel ionizable lipids; assay type: physicochemical; conditions: luciferase mRNA LNP 1.6:54.6:32.8:10.9
How it was run: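 LNPs made from PEG-lipid, ionizable lipid, cholesterol and phospholipid in ethanol, T-mixed with luciferase mRNA in 100 mM acetate pH 5. Products were dialysed, concentrated, and dialysed into 5 mM Tris, 10% sucrose, pH 8, then 0.2 μm filtered. mRNA was measured by RiboGreen, and size and polydispersity by dynamic light scattering on a Zetasizer.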

[5] = tested on: luciferase activity in the liver; assay: Luciferase activity in liver after intravenous luciferase mRNA LNP; assay type: in vivo; conditions: 0.5 mg/kg IV, 6 h post-IV administration, BALB/c mice (n = 4)
[6] = Parent ionizable lipid remaining in liver at 6 h after luciferase mRNA LNP (LC-MS); assay type: in vivo; conditions: 6 h after IV 0.5 mg/kg Luciferase mRNA LNP
[7] = Table 18, female BALB/c mice (n = 4)

CCCCCCCCCCN(C(=O)CCCN(C)C)C(CCCCCCCCC)CCCCC(F)(F)C(=O)OCCC(CCCCCC)CCCCCC (stereo not shown) [Compound 103, 3-Hexylnonyl 7-(N-decyl-4-(dimethylamino)butanamido)-2,2-difluorohexadecanoate]
Final Product % EE ([1]; Table 21): 98% | Final Product PDI ([1]; Table 21): 0.09 | Final Product Z-avg ([1]; Table 21): 67 nm | Parent ionizable lipid remaining in liver, Average ([2]; Table 29): 0.00 nmol/g liver | EGFP ([3]; Table 25): 9.54E+04 pg/g liver

CCCCCCCCCCN(C(=O)CCCN(C)C)C(CCCCCCCCC)CCCCCCC(F)C(=O)OC(CCCCCC)CCCCCC (stereo not shown) [Compound 113, Tridecan-7-yl 9-(N-decyl-4-(dimethylamino)butanamido)-2-fluorooctadecanoate]
Final Product % EE ([1]; Table 22): 98% | Final Product PDI ([1]; Table 22): 0.05 | Final Product Z-avg ([1]; Table 22): 72 nm | Parent ionizable lipid remaining in liver, Average ([2]; Table 30): 4.68 nmol/g liver | EGFP ([3]; Table 26): 3.45E+07 pg/g liver

CCCCCCCCCCN(C(=O)CCCN(C)C)C(CCCCCCCCC)CCCCCCC(F)(F)C(=O)OC(CCCCCCC)CCCCCCC (stereo not shown) [Compound 93, Pentadecan-8-yl 9-(N-decyl-4-(dimethylamino)butanamido)-2,2-difluorooctadecanoate]
Final Product % EE ([1]; Table 21): 98% | Final Product PDI ([1]; Table 21): 0.02 | Final Product Z-avg ([1]; Table 21): 69 nm | Parent ionizable lipid remaining in liver, Average ([2]; Table 29): 24.61 nmol/g liver | EGFP ([3]; Table 25): 1.77E+05 pg/g liver

CCCCCCCCCCN(C(=O)CCCN(C)C)C(CCCCCCCCC)CCCCCCC(F)(F)C(=O)OC(CCCCCC)CCCCCC (stereo not shown) [Compound 92, Tridecan-7-yl 9-(N-decyl-4-(dimethylamino)butanamido)-2,2-difluorooctadecanoate]
Final Product % EE ([1]; Table 21): 99% | Final Product PDI ([1]; Table 21): 0.09 | Final Product Z-avg ([1]; Table 21): 71 nm | Parent ionizable lipid remaining in liver, Average ([2]; Table 29): 8.83 nmol/g liver | EGFP ([3]; Table 25): 6.34E+05 pg/g liver

CCCCCCCCCCN(C(=O)CCCN(C)C)C(CCCCCCCCC)CCCCCCC(F)C(=O)OC(CCCCCCC)CCCCCCC (stereo not shown) [Compound 114, Pentadecan-8-yl 9-(N-decyl-4-(dimethylamino)butanamido)-2-fluorooctadecanoate]
Final Product % EE ([1]; Table 22): 98% | Final Product PDI ([1]; Table 22): 0.08 | Final Product Z-avg ([1]; Table 22): 73 nm | Parent ionizable lipid remaining in liver, Average ([2]; Table 30): 12.79 nmol/g liver | EGFP ([3]; Table 26): 4.29E+07 pg/g liver

CCCCCCCCCCON(C(=O)CCCN(C)C)C(CCCCCCCCCC)CCCCCCC(F)(F)C(=O)OC(CCCCCCC)CCCCCCC (stereo not shown) [Compound 106, Pentadecan-8-yl 9-(N-(decyloxy)-4-(dimethylamino)butanamido)-2,2-difluoro-nonadecanoate]
Final Product % EE ([1]; Table 22): 95% | Final Product PDI ([1]; Table 22): 0.13 | Final Product Z-avg ([1]; Table 22): 73 nm | Parent ionizable lipid remaining in liver, Average ([2]; Table 30): 56.97 nmol/g liver | EGFP ([3]; Table 26): 2.45E+07 pg/g liver

CCCCCCCCCCN(C(=O)CCCN(C)C)C(CCCCCCCCC)CCCCC(F)C(=O)OC(CCCCCCCC)CCCCCCCC (stereo not shown) [Compound 123, Heptadecan-9-yl 7-(N-decyl-4-(dimethylamino)butanamido)-2-fluorohexadecanoate]
Final Product % EE ([1]; Table 23): 99% | Final Product PDI ([1]; Table 23): 0.15 | Final Product Z-avg ([1]; Table 23): 73 nm | Parent ionizable lipid remaining in liver, Average ([2]; Table 31): 10.5 nmol/g liver | EGFP ([3]; Table 27): 3.94E+07 pg/g liver

CCCCCCCCCCC(CCCCCCC(=O)OCCC(CCCCCC)CCCCCC)N(CCCCCCCCCC)C(=O)OCCCN(C)C (stereo not shown) [Compound 105, 3-hexylnonyl 8-(decyl((3-(dimethylamino)propoxy)carbonyl)-amino) octadecanoate]
Final Product % EE ([1]; Table 22): 97% | Final Product PDI ([1]; Table 22): 0.08 | Final Product Z-avg ([1]; Table 22): 82 nm | Parent ionizable lipid remaining in liver, Average ([2]; Table 30): 18.96 nmol/g liver | EGFP ([3]; Table 26): 1.86E+07 pg/g liver

CCCCCCCCCCN(C(=O)CCCN(C)C)C(CCCCCCCCC)CCCCC(F)(F)C(=O)OC(CCCCC)CCCCC (stereo not shown) [Compound 108, Undecan-6-yl 7-(N-decyl-4-(dimethylamino)butanamido)-2,2-difluorohexadecanoate]
Final Product % EE ([1]; Table 22): 95% | Final Product PDI ([1]; Table 22): 0.07 | Final Product Z-avg ([1]; Table 22): 80 nm | Parent ionizable lipid remaining in liver, Average ([2]; Table 30): 3.86 nmol/g liver | EGFP ([3]; Table 26): 5.41E+07 pg/g liver

CCCCCCCCCCON(C(=O)CCCCN(C)C)C(CCCCCCCCCC)CCCCCCC(=O)OCCC(CCCCCC)CCCCCC (stereo not shown) [Compound 97, 3-Hexylnonyl 8-(N-(decyloxy)-5-(dimethylamino)pentanamido)octadecanoate]
Final Product % EE ([1]; Table 21): 99% | Final Product PDI ([1]; Table 21): 0.07 | Final Product Z-avg ([1]; Table 21): 85 nm | Parent ionizable lipid remaining in liver, Average ([2]; Table 29): 19.31 nmol/g liver | EGFP ([3]; Table 25): 1.48E+06 pg/g liver

CCCCCCCCCCN(C(=O)CCCN(C)C)C(CCCCCCCCC)CCCCCCC(F)(F)C(=O)OCC(CCCCCC)CCCCCCCC (stereo not shown) [Compound 17, 2-Hexyldecyl 9-(N-decyl-4-(dimethylamino)butanamido)-2,2-difluorooctadecanoate]
Final Product % EE ([4]; Table 6): 99% | Final Product PDI ([4]; Table 6): 0.10 | Final Product Z-avg ([4]; Table 6): 68 nm | Luc Activity ([5]; Table 13): 5.52E+07 pg/g liver | Parent ionizable lipid remaining in liver, Average ([6]; Table 17, female mice (n = 4)): 24.00 nmol/g liver | Parent ionizable lipid remaining in liver, Average [6, 7]: 36.58 nmol/g liver

CCCCCCCCCCN(C(=O)CCCN(C)C)C(CCCCCCCCC)CCCCCCC(F)C(=O)OCCC(CCCCCC)CCCCCC (stereo not shown) [Compound 76, 3-Hexylnonyl 9-[N-decyl-4-(dimethylamino)butanamido]-2-fluorooctadecanoate]
Final Product % EE ([4]; Table 7): 98% | Final Product PDI ([4]; Table 7): 0.07 | Final Product Z-avg ([4]; Table 7): 69 nm | Luc Activity ([5]; Table 14): 2.09E+07 pg/g liver | Parent ionizable lipid remaining in liver, Average [6, 7]: 17.86 nmol/g liver

CCCCC/C=C\CCCC(CCC/C=C\CCCCC)=NNC(=O)CC(CCCCCCCCC)N(CCCN(C)C)C(=O)C(CCCCCC)CCCCCCCC (stereo not shown) [Compound 57, N-(3-(dimethylamino)propyl)-N-(1-(2-((6Z,15Z)-henicosa-6,15-dien-11-ylidene)hydrazineyl)-1-oxododecan-3-yl)-2-hexyldecanamide]
Final Product % EE ([4]; Table 3): 80% | Final Product PDI ([4]; Table 3): 0.03 | Final Product Z-avg ([4]; Table 3): 84 nm | Luc Activity ([5]; Table 10): 2.43E+06 pg/g liver | Parent ionizable lipid remaining in liver, Average ([6]; Table 16, female BALB/c mice (n = 4)): 15.88 nmol/g liver

CCCCCCCCCCN(C(=O)CCCN(C)C)C(CCCCCCCCC)CCCCCCC(F)(F)C(=O)OC(CCCCC)CCCCC (stereo not shown) [Compound 19, Undecan-6-yl 9-(N-decyl-4-(dimethylamino)butanamido)-2,2-difluorooctadecanoate]
Final Product % EE ([4]; Table 6): 99% | Final Product PDI ([4]; Table 6): 0.09 | Final Product Z-avg ([4]; Table 6): 71 nm | Luc Activity ([5]; Table 13): 1.25E+06 pg/g liver | Parent ionizable lipid remaining in liver, Average ([6]; Table 17, female mice (n = 4)): 20.22 nmol/g liver

CCCCCCCCCCC(CCCCCCCC(=O)OCCC(CCCCC)CCCCC)N(CCCCCCCC(=O)OCCC(CCCCC)CCCCC)C(=O)CCCCN(C)C (stereo not shown) [Compound 73, 3-Pentyloctyl 9-(5-(dimethylamino)-N-(8-oxo-8-((3-pentyloctyl)oxy)octyl)-pentanamido)-nonadecanoate]
Final Product % EE ([4]; Table 7): 99% | Final Product PDI ([4]; Table 7): 0.00 | Final Product Z-avg ([4]; Table 7): 82 nm | Luc Activity ([5]; Table 14): 3.64E+07 pg/g liver | Parent ionizable lipid remaining in liver, Average [6, 7]: 31.41 nmol/g liver
